Data as given in patent US9416102B2, “(22E)-2-methylene-22-dehydro-1α,24,25-trihydroxy-19-nor-vitamin D3 analogs” (Wisconsin Alumni Research Foundation, priority 2013, dated 2016).

How the values were obtained:
[1] = target: T1, Full-length recombinant rat receptor (vitamin D receptor, VDR) (Rattus norvegicus, UniProt P13053); assay: Vitamin D receptor competitive binding; settings: relative to 1,25(OH)2D3, FIG. 1; for competition for binding to the VDR compared to the native hormone: in words
T1 construct: Full-length recombinant rat receptor was expressed in E. coli; histidine tag (C); made in house; host or cells: E. coli BL21(DE3) Codon Plus RIL
T1 sequence (P13053 1-423): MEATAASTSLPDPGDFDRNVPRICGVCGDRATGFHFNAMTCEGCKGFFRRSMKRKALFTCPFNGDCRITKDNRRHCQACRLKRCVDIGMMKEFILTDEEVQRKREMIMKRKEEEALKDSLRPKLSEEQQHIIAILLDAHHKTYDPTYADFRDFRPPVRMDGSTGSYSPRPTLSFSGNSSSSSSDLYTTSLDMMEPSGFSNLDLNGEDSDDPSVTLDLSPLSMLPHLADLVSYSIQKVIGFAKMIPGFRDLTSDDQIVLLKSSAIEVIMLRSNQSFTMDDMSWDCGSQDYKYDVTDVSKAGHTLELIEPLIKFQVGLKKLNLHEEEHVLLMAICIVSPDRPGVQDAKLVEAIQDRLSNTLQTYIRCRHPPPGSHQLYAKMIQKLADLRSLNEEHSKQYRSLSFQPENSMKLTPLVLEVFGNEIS
Excerpt: Vitamin D Receptor Binding
Full-length recombinant rat receptor was expressed in E. coli BL21(DE3) Codon Plus RIL cells and purified to homogeneity using two different column chromatography systems. The first system was a nickel affinity resin that utilizes the C-terminal histidine tag on this protein. The protein that was eluted from this resin was further purified using ion exchange chromatography (S-Sepharose Fast Flow). Aliquots of the purified protein were quick frozen in liquid nitrogen and stored at −80° C. until use. For use in binding assays, the protein was diluted in TEDK50 (50 mM Tris, 1.5 mM EDTA, pH 7.4, 5 mM DTT, 150 mM KCl) with 0.1% Chaps detergent. The receptor protein and ligand concentration was optimized such that no more than 20% of the added radiolabeled ligand was bound to the receptor.
Unlabeled ligands were dissolved in ethanol and the concentrations determined using UV spectrophotometry (1,25(OH)2D3: molar extinction coefficient=18,200 and 1max=265 nm; Analogs: molar extinction coefficient=42,000 and 1max=252 nm). Radiolabeled ligand (^3H-1,25(OH)2D3, ˜159 Ci/mmole) was added in ethanol at a final concentration of 1 nM.
Radiolabeled and unlabeled ligands were added to 100 mcl of the diluted protein at a final ethanol concentration of ≦10%, mixed and incubated overnight on ice to reach binding equilibrium. The following day, 100 mcl of hydroxylapatite slurry (50%) was added to each tube and mixed at 10-minute intervals for 30 minutes. The hydroxyapaptite was collected by centrifugation and then washed three times with Tris-EDTA buffer (50 mM Tris, 1.5 mM EDTA, pH 7.4) containing 0.5% Titron X-100. After the final wash, the pellets were transferred to scintillation vials containing 4 ml of Biosafe II scintillation cocktail, mixed and placed in a scintillation counter. Total binding was determined from the tubes containing only radiolabeled ligand.

[2] = tested on: 24-hydroxylase (24OHase) gene promoter; assay: In vitro transcription assay (luciferase reporter in ROS 17/2.8 cells); assay type: cell-based; settings: FIG. 3; for stimulation of gene transcription compared to the native hormone: in words
Procedure: In Vitro Transcription Assay
Transcription activity was measured in ROS 17/2.8 (bone) cells that were stably transfected with a 24-hydroxylase (24OHase) gene promoter upstream of a luciferase reporter gene (Arbour et al., 1998). Cells were given a range of doses. Sixteen hours after dosing the cells were harvested and luciferase activities were measured using a luminometer. RLU=relative luciferase units.

[3] = tested on: ovariectomized (OVX) Sprague-Dawley female rats; assay: Ovariectomized rat model, bone strength testing (3-point bending); assay type: in vivo; settings: 60 ng/kg body weight once daily for 17 weeks, FIG. 6
Procedure: Virgin Sprague-Dawley female rats were either sham-operated or ovariectomized (OVX) at 4 months of age by the vendor (Harlan). Starting at 16 weeks post-surgery, the animals were given vehicle or test analog (WT or 2MD) once daily for 17 weeks. Bone mineral density (BMD) and serum and urinary calcium levels were assessed periodically throughout the study. At termination, femurs were collected for bone strength testing (3-point bending, Numira Biosciences).

[4] = tested on: Human promyelocytic leukemia (HL-60) cells; assay: HL-60 differentiation (nitro blue tetrazolium reduction); assay type: cell-based; settings: relative to 1,25(OH)2D3; FIG. 2
Procedure: The study drugs were dissolved in ethanol and the concentrations determined using UV spectrophotometry. Serial dilutions were prepared so that a range of drug concentrations could be tested without changing the final concentration of ethanol (≦0.2%) present in the cell cultures.
Human promyelocytic leukemia (HL-60) cells were grown in RPMI-1640 medium containing 10% fetal bovine serum. The cells were incubated at 37° C. in the presence of 5% CO2.
HL-60 cells were plated at 1.2×10^5 cells/ml. Eighteen hours after plating, cells in duplicate were treated with drug. Four days later, the cells were harvested and a nitro blue tetrazolium reduction assay was performed (Collins et al., 1979; J. Exp. Med. 149:969-974). The percentage of differentiated cells was determined by counting a total of 200 cells and recording the number that contained intracellular black-blue formazan deposits. Verification of differentiation to monocytic cells was determined by measuring phagocytic activity (data not shown).

Row | Structure (SMILES) | competition for binding to the VDR compared to the native hormone [1] | binding to the vitamin D receptor (VDR), times less active than the natural hormone [1] | stimulation of gene transcription compared to the native hormone [2] | stimulating gene transcription from the 24OHase gene promoter, times more effective than the natural hormone ([2]; relative to 1,25(OH)2D3) | bone strength compared to 2MD at 2.5 ng/kg body weight [3] | promoting HL-60 cell differentiation, times more potent than the native hormone [4]
1 | C=C1[C@H](O)CC(=C/C=C2\CCC[C@]3(C)[C@@H]([C@H](C)/C=C/[C@H](O)C(C)(C)O)CC[C@@H]23)C[C@H]1O [WT-52, (22E)-(24S)-2-methylene-22-dehydro-1α,24,25-trihydroxy-19-nor-vitamin D3] | one log less than the native hormone | approximately 10 × | approximately the same activity as the native hormone |  |  | 
2 | C=C1[C@H](O)CC(=C/C=C2\CCC[C@]3(C)[C@@H]([C@H](C)/C=C/[C@@H](O)C(C)(C)O)CC[C@@H]23)C[C@H]1O [WT-51, (22E)-(24R)-2-methylene-22-dehydro-1α,24,25-trihydroxy-19-nor-vitamin D3] | one log less than the native hormone | approximately 10 × | nearly one log more potent than the native hormone | approximately 10 × | improves bone strength in ovariectomized rats to the same degree as 2MD | approximately 10 ×
